Consider 88 molecules from a melting point compilation (Tetko et al.; mined from patent text by program, amines drawn as free bases though some values may be those of a salt).

For `OC[C@@H]1CCCN1Cc1cc2cc3c(cc2c2cc(OCc4ccccc4)ccc12)OCO3`, the melting point fell in the range of 122 to 124 °C.
The same measure for `C=C1CC2C(CCC3(C)C2CCC3(O)C(=O)COC(C)=O)C2(C)CCC(=O)C=C12` (stereo not drawn): 194 to 196 °C; for `COc1ccc(-c2cnc3cc4[nH]ncc4cc3n2)cc1F`: greater than 250 °C.
In turn, `Fc1cc(Cl)ccc1/C=C/c1nc(COc2ccc(-c3nc(Cn4ccnc4)co3)cc2)co1` yielded a melting point of 166 to 167 °C.
Molecule `CC1(C)C(=O)Oc2ccc3cc(C(=O)O)c(Cn4cncn4)cc3c21` came in with a melting point of 262 to 265 °C.
The same measure for `COc1cccc(C23CCCC=C2C(=O)NC(=O)C3)c1` (stereo not drawn): 230 to 232 °C; for `O=S(=O)(CC=C1CCCC1)c1ccccc1`: 68 °C.
`Cc1ccc(-c2ccc(C(=O)Nc3ccc4cc(CN5CCCC5)cnc4c3C)cn2)cc1` showed a melting point of 178 to 180 °C.
In turn, `CCCc1nn(C)c(C(N)=O)c1NC(=O)c1cc(S(=O)(=O)N2CCN(C)CC2)ccc1OCC` had a melting point of 204 to 206 °C.
In turn, `O=C1N(N2CCOCC2)c2ccccc2C1(Cc1ccccn1)Cc1ccccn1` gave a melting point of 157 to 159 °C.
`Fc1cc(Br)c2ccccc2c1Cl`: the melting point was in the range of 75 to 76 °C.
As to `CC(C(N)=O)c1ccc(-c2ccc(F)cc2F)c(O)c1` (stereo not drawn), the melting point lay within 222 to 224 °C.
In the case of `O=C1c2ccccc2C(=O)N1CCOc1ccc([N+](=O)[O-])cc1`, the melting point lay within 151 to 153 °C.
In the case of `FN(F)C12CC3CC(CC(C3)C1)C2`, the melting point was 113 to 115 °C.
For the molecule `CC(C)(C)OC(=O)C(C)(C)N1COC(CCl)=C(c2ccccc2)C1=O`, the melting point was 128 to 129 °C.
The same measure for `COc1ccc(C2=NNC(=O)[C@H]3CC=CC[C@@H]23)c2c1OC(C)(C)C2` (relative stereo): 242 °C; for `CC(C)C(C)(C#N)N1C(=O)c2ccc3ccsc3c2C1=O` (stereo not drawn): 99 to 107 °C.
`CC(C)(C)C(=O)Nc1ccc(Br)cc1-c1ccnc(C(F)(F)F)n1` showed a melting point of 153 to 157 °C.
With `CN1C=C(C(=O)O)C(C(=N)O)=NC1N1CCN(Cc2ccccc2)CC1` (stereo not drawn), the melting point lay in the range of 158 to 160 °C.
`CC[C@@H]1O[C@](/C=C/C2CC2)(C(F)(F)F)c2c(ccc3c2OCO3)NC1=O` (relative stereo) yielded a melting point of 188 to 190 °C.
As to `COc1cccc2c1CCCC2=NO`, the melting point lay in the range of 158 to 159 °C.
`Cc1oc(-c2ccccc2)nc1C(=O)COc1ccc(CC2SC(=O)NC2=O)cc1` (stereo not drawn) gave a melting point of 168 to 169 °C.
For `O=COCC#Cc1cc(F)c2ncc(C(=O)NCc3ccc(Cl)cc3)c(O)c2c1`, the melting point was 231 to 233 °C.
As to `O=C(Nc1ccc(Oc2ccnc(NCCN3CCOCC3)n2)c2ccccc12)c1cc(F)cc(N2CCOCC2)c1`, the melting point was 112 to 114 °C.
With `Fc1ccc(OC(CN2CCN(c3ccccc3)CC2)c2ccccc2)cc1` (stereo not drawn), the melting point fell in the range of 80 to 82 °C.
`COc1ccc(C2Sc3ccccc3NC(=O)C2OC(C)=O)cc1` (stereo not drawn) registered a melting point of 193 to 195 °C.
As to `OC1CSC(Oc2cnccc2-c2ccc(C(F)(F)F)cc2)C(O)C1O` (stereo not drawn), the melting point turned out to be 204 °C.
Molecule `O=C1COc2ccc(CN3CCN(c4ccccc4)CC3)cc2N1` yielded a melting point of 207 to 209 °C.
On to `COc1cc(Nc2c(C#N)cnc3cc(-c4cccc(CN5CCN(C)CC5)c4)ccc23)c(Cl)cc1Cl`, for which the melting point lay within 104 to 106 °C.
For the molecule `Cc1cccc2c1OC(c1ccccc1)([N+](=O)[O-])C2` (stereo not drawn), the melting point was in the range of 122 to 126 °C.
In the case of `CCOC(=O)c1cc2c(C)cccc2n1CCNC(=O)OC(C)(C)C` it was 93 to 94 °C.
`Cc1cccc(-c2nc(N)sc2-c2ccnc(NCc3ccccc3)c2)c1` registered a melting point of 178 to 179 °C.
For the molecule `Cn1ccc(=O)c(OCc2ccccc2)c1C(O)c1ccc2c(c1)OCO2` (stereo not drawn), the melting point was in the range of 230 to 232 °C.
In the case of `CC(C)(C)OC(=O)CC(NC(=O)C1CCCN2C(=O)CCC(NS(C)(=O)=O)C(=O)N12)C(=O)COC(=O)c1ccccc1Oc1ccccc1` (stereo not drawn), the melting point lay in the range of 85 to 100 °C.
In the case of `O=C(O)c1cc(=O)c(Oc2ccc(C3CCCCC3)cc2)co1` it was 187 to 190 °C.
The same measure for `NS(=O)(=O)c1cc(C(=O)OCC(=O)NCCO[N+](=O)[O-])c(NCc2ccco2)cc1Cl`: 135 °C; for `COc1ccnc(CSc2nc3c(C)c(OC(F)F)c(C)cc3[nH]2)c1OC`: 137 to 138 °C; for `Cc1c(C(N)=O)sc2cncc(Oc3ccc(Cl)cc3)c12`: 174 to 175 °C.
`CN(C)c1noc(-c2ccc3c(c2)c2cc(-c4ccc(Cl)cc4Cl)c(=O)n(C)c2n3C)n1` had a melting point of 320 to 324 °C.
`COCn1cnc(N2CCc3ccccc3CC2)c(C#N)c1=O`: the melting point is 119 to 124 °C.
As for `Cn1ncnc1COc1nc2c(cc1-c1ccsc1)nnn2-c1c(F)cccc1F`, the melting point was 171 to 172 °C.
`CCOC(=O)c1cccc(N2C(=O)C=CC2=O)c1C(=O)OCC` yielded a melting point of 86 to 90 °C.
In the case of `CC(C)n1nc(-c2sc(NC(=O)c3ccccc3)nc2-c2ccc(F)cc2)ccc1=O` it was 228 to 230 °C.
The molecule `COC(=O)c1cc(Cl)cc2c1OC(C)C(=O)N2C` (stereo not drawn) displayed a melting point of 128 to 130 °C.
In the case of `Cc1cccc2c1Cc1ccccc1OC(C(=O)O)O2` (stereo not drawn) it was 61 °C; in that of `CCOC(=O)CCC1OC(n2cc(CC)c(=O)[nH]c2=O)CC1OC(C)=O` (stereo not drawn), 137 to 138 °C.
The same measure for `CCOC(=O)C(=CNC1CC1)C(=O)c1cc(F)c(Cl)c(C#N)c1Cl`: 65 to 67 °C; for `Cc1ncnc(-c2cc([N+](=O)[O-])c(C#N)cc2F)c1Cl`: 123 to 125 °C.
Molecule `O=C1C(Br)=C(c2cn(S(=O)(=O)c3ccccc3)c3ccccc23)C(=O)N1COCc1ccccc1` returned a melting point of 49 to 51 °C.
In the case of `O=C(NC(CO)CO)OCc1ccccc1` it was 104 to 106 °C; in that of `COc1ccccc1C1C2CCC(C2)C12CCC(=S)N2` (stereo not drawn), 194 °C; in that of `CC(C)c1nc2ccccc2c(-c2ccc(F)cc2)c1CO`, 132 to 134 °C.
The same measure for `COC(=O)CCNC(=O)C1CCCN1C(=O)OC(C)(C)C` (stereo not drawn): 70 °C.
In turn, `CC(C1CCC(Oc2ccc(F)cc2)C1)N(O)C(N)=O` (stereo not drawn) displayed a melting point of 111 to 112 °C.
In the case of `O=C(O)C(CCC1=CCCCC1)Oc1ccc(-c2ccc(Cl)s2)cc1` (stereo not drawn), the melting point was in the range of 136 to 138 °C.
Regarding `NS(=O)(=O)OCCOc1ccc(Br)cc1`, the melting point lay within 134 to 137 °C.
For `CC(C(=O)O)c1ccc2c(c1)C(=O)Cc1cc(N)ccc1S2` (stereo not drawn), the melting point lay within 189 to 191 °C.
The molecule `CC(=O)c1ccc(-c2ccc(C#N)o2)cc1` yielded a melting point of 122 to 125 °C.
In the case of `CC(c1nnnn1C)C(O)(c1ccc(F)cc1)c1ccc(F)cc1` (stereo not drawn) it was 160 to 161 °C; in that of `c1csc(-c2n[nH]c3c2sc2ccccc23)c1`, 236 to 238 °C.
As for `N#Cc1cc2cccc(NS(=O)(=O)c3cccs3)c2[nH]1`, the melting point was 283 to 284 °C.
Regarding `O=C1CCCN1N=c1sc2ccccc2s1`, the melting point was 122 to 124 °C.
As for `O=c1[nH]c2cnc(-c3ccccc3)nc2n1Cc1ccccc1`, the melting point is 286 to 287 °C.
Molecule `Fc1ccc(C2Cc3cnc(NCCCN4CCCCC4)nc3-c3ccccc32)cc1` (stereo not drawn) came in with a melting point of 60 to 62 °C.
In the case of `Cc1cccc(C)c1CNc1cc(C(=O)N(C)CCO)cc2c1nc(C)n2C`, the melting point lay in the range of 177 to 178 °C.
For the molecule `CCN(CC)CCCCNc1ncc2c(n1)NC(=O)N(c1cc(OC)cc(OC)c1)C2`, the melting point lay in the range of 203 to 207 °C.
Turning to `COC(=O)COc1ccc(S(=O)(=O)C(Br)(Br)Br)cc1`, the melting point lay within 152 to 153 °C.
Molecule `CCCNC(=O)C(=O)CCC(=O)O` had a melting point of 79 to 81 °C.
In the case of `COc1cc2c3c(c1)-c1c(O)cccc1CC3N(C)CC2` (stereo not drawn), the melting point fell in the range of 214 to 215 °C.
Take `CC(C)c1cc(C(C)C)c(NC(=O)CN2CCN(CCCSc3nc4ccccc4s3)CC2)c(C(C)C)c1`: the melting point was 107 to 108 °C.
In turn, `Cc1ccccc1NC(=O)Nc1ccc(CC(=O)NC(CC(C)C)c2cc(C=CC(=O)O)on2)cc1` (stereo not drawn) gave a melting point of 136 to 138 °C.
Consider `CN(C)CCN(C)c1ccc(Nc2cc(Br)cn(C)c2=O)nc1`, for which the melting point lay within 161 to 163 °C.
Regarding `Cc1sc2c(c1C)C(c1ccc(Cl)cc1)=N[C@@H](CC(=O)Nc1ccc(N)cc1)c1nnc(C)n1-2`, the melting point lay in the range of 169 to 173 °C.
In the case of `CC1=CC(c2cccc(Cl)c2)C2=C(CCCC2=O)N1` (stereo not drawn) it was 201 to 203 °C; in that of `C=C(Cn1ccnc1)c1ccccc1OCc1ccc(-c2ccccc2)cc1`, 90 to 92 °C; in that of `O=S(=O)(c1ccc(OCCCBr)cc1)c1c(-c2ccccc2)cn2ccccc12`, 199 °C.
In the case of `CN(C)C(=O)COc1ccc2c(c1)C[C@@H](NC[C@@H](O)c1ccc(OCc3ccccc3)cc1)CC2` it was 103 to 106 °C; in that of `CN(C)CCc1cc2occc2c(=O)[nH]1`, 97.5 to 98 °C.
In turn, `Nc1c(Cl)cc(C(O)CNCCCCCCOCCCc2ccccn2)cc1Cl` (stereo not drawn) had a melting point of 38 to 41 °C.
With `CSc1noc(-c2ccc(OCCOc3ccc(Br)cc3)cc2)c1C#N`, the melting point was 156 to 157 °C.
Molecule `C=C1C(=O)C2CCC1(C)C2(C)C` (stereo not drawn) registered a melting point of 69 to 75 °C.
Consider `Cc1ccc(N(Cc2ccc(N(C)C)cc2)C(=O)Nc2c(C(C)C)cccc2C(C)C)cc1`, for which the melting point fell in the range of 124 to 125 °C.
Molecule `COc1ccc2c(c1)sc1nc(N)nc(=Nc3ccc(O)cc3)n12` registered a melting point greater than 255 °C.
`O=C(NN=Cc1ccc(C(F)(F)F)c([N+](=O)[O-])c1)c1ccc(O)cc1`: the melting point turned out to be 280 °C.
With `CNC(=O)NS(=O)(=O)c1cc2c(cc1OC)OCC(NC(=O)c1cc(Cl)ccc1OC)C2` (stereo not drawn), the melting point was in the range of 256 to 257 °C.
In the case of `O=C(NC1(C(=O)O)CCc2cc(O)ccc2C1)C(F)(F)F` (stereo not drawn) it was 70 to 95 °C.
`COC1CCC(OC)C2=C1C=CC(=O)C2` (stereo not drawn): the melting point is 99 to 100 °C.
In turn, `N=C(N)c1ccc(C(=O)N[C@@H](CO)Cc2ccc(OCC(=O)O)cc2)cc1` showed a melting point of 238 to 240 °C.
